# Data published in patent US9101603B2, “Targeting of CYP1B1 in the treatment of head and neck cancer and lung cancer” (Institute for Cancer Research, priority 2010, dated 2015).
# What was measured:
# Format in all cases: cell-based
# [1] = test system: MSK-Leuk1 cells; test: Cell motility assay (scratch gap closure, 16 h), vector- or CYP1B1 shRNA-expressing cells; details: 1 nM E2, vector- and CYP1B1 shRNA-expressing MSK-Leuk1 cells
# Description: (§1) For all the experiments that involved estradiol (E2) exposure, MSK-Leuk1 cells were cultured in phenol red-free and serum-free DermaLife® K Medium (Lifeline Cell Technology, Walkersville, Md.). SCC cells were cultured in their respective media with no phenol red, supplemented with charcoal-stripped serum (Gibco, Carlsbad, Calif.). Cells were incubated for 48 h to remove endogenous estrogens and then plated at 70% confluence. After 24 h, the medium was replaced with either control medium containing vehicle (0.01% ethanol) or medium supplemented with 1 nM E2 (Sigma-Aldrich, St. Louis, Mo.). Cells were harvested after the appropriate treatment period and analyzed.
# Cell motility assay. MSK-Leuk1 cells, expressing either vector or CYP1B1 shRNA, were cultured in phenol red-free and serum-free medium for 48 h and then plated at 70% confluence. After 24 h, the cells were treated with either vehicle or E2 (1 nM) in triplicate, as described above. […] The area devoid of cells was measured on every image using MetaMorph 7.0 (Molecular Devices, Inc., Sunnyvale, Calif.). The gap closure percentages were calculated as (area at 0 h−area at 16 h)/(area at 0 h).
# In addition, a time-lapse movie capturing the process of gap closure in vector-expressing MSK-Leuk1 cells was obtained. […] The percentage of proliferating cells (those rounded up for cell division) was counted in this representative area.
# [2] = test system: MSK-Leuk1 cells; test: Apoptosis assay (Guava Nexin kit, annexin V positive cells); details: 72 h; for decrease of apoptosis by exposure to E2: 1 nM E2; for effect on the E2-mediated decrease in apoptosis: fulvestrant 1 μM added to 1 nM E2
# Description: as §1
# Apoptosis assay. Apoptosis was assessed using the Guava Nexin kit (Millipore, Billerica, Mass.). Fifty thousand cells were plated per well in 6-well plates. After the appropriate treatment, floating cells were collected, combined with attached cells following trypsinization, and resuspended in DermaLife® K Medium (Lifeline Cell Technology, Walkersville, Md.) supplemented with 5% FBS. The cell suspension (100 μl) was incubated with 100 μl of Guava® Nexin Reagent for 20 min, according to the manufacturer's instructions. Two thousand cells were analyzed from each sample using the Guava® EasyCyte™ system, and the resulting data were expressed as a percentage of apoptotic cells (annexin V positive cells/total number of cells counted).
# [3] = test system: MSK-Leuk1 cells; test: Cell proliferation (total DNA content, Fluorescent DNA Quantitation kit); details: vector-expressing cells; 1 nM E2; 72 h; not statistically significant
# Description: as §1
# Cell proliferation. Fifty thousand cells/well were plated in 6-well plates. After the appropriate treatment, the DNA content of the cells, an indirect measure of proliferation, was determined using a Fluorescent DNA Quantitation kit (Bio-Rad Laboratories, Hercules, Calif.). In brief, cells were harvested, sonicated in 0.1×TEN assay buffer (Bio-Rad Laboratories) for 5 s, and incubated with a Hoechst dye mixture (BioRad Laboratories) for 1 h. Total DNA was measured using Fluoroscan Ascent FL (Thermo Fisher Scientific, Waltham, Mass.) at an excitation wavelength of 360 nm and an emission wavelength of 460 nm.
smiles,measurement,setting,value
"C[C@]12CC[C@@H]3c4ccc(O)cc4CC[C@H]3[C@@H]1CC[C@@H]2O [E2, 17β-estradiol]",effect of E2 treatment on motility,[1],not affected
same,decrease of apoptosis by exposure to E2,"[2]; CYP1B1 shRNA-expressing cells, P=0.015",30.1%
same,decrease of apoptosis by exposure to E2,"[2]; vector-expressing cells, P=0.030",25.5%
same,induction of cell proliferation by E2 exposure,[3],10%
C[C@]12CC[C@@H]3c4ccc(O)cc4C[C@@H](CCCCCCCCC[S+]([O-])CCCC(F)(F)C(F)(F)F)[C@H]3[C@@H]1CC[C@@H]2O (stereo partly drawn) [fulvestrant],effect on the E2-mediated decrease in apoptosis,[2],restored
same,effect on the E2-mediated decrease in apoptosis,[2]; listed as Fulvestrant,restores
